Reference: patent US8071507B2, “Plant growth regulating and fungicidal compositions” (Syngenta Crop Protection, Inc., priority 2005, dated 2011)

Key:
Format in all cases: in vivo
Rye = experiment: Plant growth regulation (PGR), pre-emergence, rye; conditions: 14 days
Procedure: (§1) The compounds are sprayed with a vertical boom sprayer at the mentioned rates (ref. result-tables) pre-plant on the bare soil, then they are incorporated into the soil and the plants are seeded.

Oilseed Rape = experiment: Plant growth regulation (PGR), pre-emergence, oilseed rape; conditions: 14 days
Procedure: as §1

Oat = experiment: Plant growth regulation (PGR), pre-emergence, oat; conditions: 14 days
Procedure: as §1

Triticale = experiment: Plant growth regulation (PGR), pre-emergence, triticale; conditions: 14 days
Procedure: as §1

Summer rape “Hybridol” = experiment: Plant growth regulation (PGR), post-emergence, summer rape; conditions: 14 days after application
Procedure: (§2) The plants are seeded and grown in a greenhouse until Growth Stage 12 (2 leafs unfolded). Then the compounds/mixture of the compounds are sprayed with a vertical boom sprayer top over the leafs.

[1] = test system: Winter rape “Colza d'hiver Aviso”; experiment: Plant growth regulation (PGR), post-emergence, winter rape; conditions: 14 days after application
Procedure: as §2

Wheat = experiment: Plant growth regulation (PGR), pre-emergence, wheat; conditions: 14 days
Procedure: as §1

Soybean = experiment: Plant growth regulation (PGR), pre-emergence, soybean; conditions: 14 days
Procedure: as §1

Barley = experiment: Plant growth regulation (PGR), pre-emergence, barley; conditions: 14 days
Procedure: as §1

CC(C)(C)[C@@H](O)[C@@H](Cc1ccc(Cl)cc1)n1cncn1 (racemic) [Paclobutrazole, (2RS,3RS)-1-(4-chlorophenyl)-4,4-dimethyl-2-(1H-1,2,4-triazol-1-yl)-pentan-3-ol]
Observed PGR in % (% Cobs) (Rye; Paclobutrazole 25 mg/L): 25% | Observed PGR in % (% Cobs) (Rye; Paclobutrazole 50 mg/L): 40% | Observed PGR in % (% Cobs) (Oilseed Rape; Paclobutrazole 12.5 mg/L): 40% | Observed PGR in % (% Cobs) (Oilseed Rape; Paclobutrazole 25 mg/L): 50% | Observed PGR in % (% Cobs) (Oilseed Rape; Paclobutrazole 50 mg/L): 55% | Observed PGR in % (% Cobs) (Oat; Paclobutrazole 25 mg/L): 30% | Observed PGR in % (% Cobs) (Oat; Paclobutrazole 50 mg/L): 40% | Observed PGR in % (% Cobs) (Triticale; Paclobutrazole 25 mg/L): 10% | Observed PGR in % (% Cobs) (Triticale; Paclobutrazole 50 mg/L): 30% | Observed PGR in % (% Cobs) (Summer rape “Hybridol”; Paclobutrazole 31.3 g a.i./ha): 17% | Observed PGR in % (% Cobs) (Summer rape “Hybridol”; Paclobutrazole 62.5 g a.i./ha): 23% | Observed PGR in % (% Cobs) ([1]; Paclobutrazole 31.3 g a.i./ha): 30% | Observed PGR in % (% Cobs) ([1]; Paclobutrazole 62.5 g a.i./ha): 33% | Observed PGR in % (% Cobs) (Wheat; Paclobutrazole 12.5 mg/L): 20% | Observed PGR in % (% Cobs) (Wheat; Paclobutrazole 25 mg/L): 25% | Observed PGR in % (% Cobs) (Wheat; Paclobutrazole 50 mg/L): 40% | Observed PGR in % (% Cobs) (Soybean; Paclobutrazole 25 mg/L): 30% | Observed PGR in % (% Cobs) (Soybean; Paclobutrazole 50 mg/L): 50% | Observed PGR in % (% Cobs) (Barley; Paclobutrazole 12.5 mg/L): 0% | Observed PGR in % (% Cobs) (Barley; Paclobutrazole 25 mg/L): 10% | Observed PGR in % (% Cobs) (Barley; Paclobutrazole 50 mg/L): 30%

CC1COC(Cn2cncn2)(c2ccc(Oc3ccc(Cl)cc3)cc2Cl)O1 (stereo not drawn) [Difenoconazole, 1-[2-[2-chloro-4-(4-chlorophenoxy)phenyl]-4-methyl-1,3-dioxolan-2-ylmethyl]-1H-1,2,4-triazole]
Observed PGR in % (% Cobs) (Rye; Difenoconazole 50 mg/L): 0% | Observed PGR in % (% Cobs) (Rye; Difenoconazole 100 mg/L): 0% | Observed PGR in % (% Cobs) (Oilseed Rape; Difenoconazole 25 mg/L): 0% | Observed PGR in % (% Cobs) (Oilseed Rape; Difenoconazole 50 mg/L): 0% | Observed PGR in % (% Cobs) (Oilseed Rape; Difenoconazole 100 mg/L): 0% | Observed PGR in % (% Cobs) (Oat; Difenoconazole 50 mg/L): 0% | Observed PGR in % (% Cobs) (Oat; Difenoconazole 100 mg/L): 0% | Observed PGR in % (% Cobs) (Triticale; Difenoconazole 50 mg/L): 0% | Observed PGR in % (% Cobs) (Triticale; Difenoconazole 100 mg/L): 0% | Observed PGR in % (% Cobs) (Summer rape “Hybridol”; Difenoconazole 62.5 g a.i./ha): 0% | Observed PGR in % (% Cobs) (Summer rape “Hybridol”; Difenoconazole 125 g a.i./ha): 0% | Observed PGR in % (% Cobs) ([1]; Difenoconazole 62.5 g a.i./ha): 0% | Observed PGR in % (% Cobs) ([1]; Difenoconazole 125 g a.i./ha): 0% | Observed PGR in % (% Cobs) (Wheat; Difenoconazole 25 mg/L): 0% | Observed PGR in % (% Cobs) (Wheat; Difenoconazole 50 mg/L): 0% | Observed PGR in % (% Cobs) (Wheat; Difenoconazole 100 mg/L): 0% | Observed PGR in % (% Cobs) (Soybean; Difenoconazole 50 mg/L): 0% | Observed PGR in % (% Cobs) (Soybean; Difenoconazole 100 mg/L): 0% | Observed PGR in % (% Cobs) (Barley; Difenoconazole 25 mg/L): 0% | Observed PGR in % (% Cobs) (Barley; Difenoconazole 50 mg/L): 0% | Observed PGR in % (% Cobs) (Barley; Difenoconazole 100 mg/L): 0%
